Data published in paper PMC6681222, “Discovery and Rational Design of a Novel Bowman-Birk Related Protease Inhibitor” (Biomolecules, 2019).
pKi: −log10 of the molar value. In brackets after ≈: the same amount, converted by molar mass. Entries after “also recorded” stand apart in the source; their conditions may differ. Bridge positions count the residues as written; N and C are the ends. Peptide text beside a SMILES is read from it.

Assays:
trypsin = molecular target: T1, trypsin (Bos taurus, UniProt P00760); assay: Trypsin inhibition assay; assay type: biochemical
T1 construct: gene PRSS1
T1 sequence (P00760 24-246): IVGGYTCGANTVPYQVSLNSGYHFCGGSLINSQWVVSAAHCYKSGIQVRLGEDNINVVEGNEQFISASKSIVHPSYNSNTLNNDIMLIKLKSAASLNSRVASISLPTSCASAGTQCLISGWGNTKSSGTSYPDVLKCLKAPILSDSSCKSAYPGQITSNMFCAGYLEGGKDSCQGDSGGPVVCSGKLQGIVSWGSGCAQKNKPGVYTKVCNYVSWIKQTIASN
Experimental: (§1) The trypsin, chymotrypsin inhibition tests were performed as described previously. 10 µL tryptase (1 mg/mL, Calbiochem, UK) was added to the wells of a micro-titer plate containing 180 µL substrate (Boc-Phe-Ser-Arg-NHMec, obtained from Bachem, UK) (50 µM) and 20 µL synthetic replicates (0.1–100 µM) in a tryptase buffer, pH7.6, containing 0.05 M Tris, 0.15 M NaCl, and 0.2% (w/v) polyethylene glycol 6000 (final volume 210 µL).
The inhibition curves of the trypsin/chymotrypsin inhibition assay and tryptase inhibition assay were formed as outlined before.
(§2) The progress curves for the hydrolysis of the fluorogenic substrate were used to estimate an initial rate (Vi) to generate the Morrison plots. All of the progress curves and corresponding Morrison plots in the presence of each peptide of different concentrations are shown in Figure S4.

chymotrypsin = chymotrypsin (Bos taurus, UniProt P00766); assay: Chymotrypsin inhibition assay; assay type: biochemical; conditions: fluorogenic substrate, AMC release (ex 360/em 460 nm), Morrison plot; average of three independent experiments
Experimental: as §1
(§3) The rate of hydrolysis of the substrate was monitored by measuring the rate of increase of fluorescence due to the release of 7–amino–4–methylcoumarin (AMC) at 460 nm (excitation 360 nm) in a FLUOstar OPTIMA multi-well plate reader. The inhibition curves of the trypsin/chymotrypsin inhibition assay and tryptase inhibition assay were formed as outlined before.
as §2, with “PPF-BBI and its analogues were tested for inhibitory activity against trypsin, chymotrypsin and tryptase, respectively. The” for “The”

tryptase = molecular target: T2, tryptase (Homo sapiens, UniProt Q15661); assay: Tryptase inhibition assay; assay type: biochemical; conditions: substrate Boc-Phe-Ser-Arg-NHMec 50 µM, peptide 0.1-100 µM, tryptase buffer pH 7.6, Morrison plot; average of three independent experiments
T2 construct: purchased Calbiochem, UK
Experimental: as §1, §3, §2

[1] = system: methicillin-resistant S. aureus (MRSA) (ATCC 12493); assay type: cell-based
Experimental: (§4) The MIC and MBC of the synthetic peptides were determined as previously described, using S. aureus (NCTC 10788), E. coli (NCTC 10418) and C. albicans (NCYC 1467), together with two species of resistant micro-organisms, methicillin-resistant S. aureus (MRSA) (ATCC 12493) and P. aeruginosa (ATCC 27853).

E. coli (NCTC 10418) = assay type: cell-based
Experimental: as §4

S. aureus (NCTC 10788) = assay type: cell-based
Experimental: as §4

C. albicans (NCYC 1467) = assay type: cell-based
Experimental: as §4

[2] = system: P. aeruginosa (ATCC 27853); assay type: cell-based
Experimental: as §4

horse erythrocytes = assay: Haemolysis test; assay type: cell-based; conditions: 2% suspension of horse erythrocytes, 512 to 1 µM peptide, 4 h; 2% Triton X-100 = 100% haemolysis
Experimental: The haemolytic activity of each peptide was measured by incubating a range of final peptide concentrations from 512 to 1 µM in a two-fold dilution in a 2% suspension of horse erythrocytes, as described in a previous study.
Figure 4 (a) The cell viability of the cancer cell lines H460, H157, H23, H838, HT-29, PC-3, U251MG and HMEC-1 at 4 mM 5-FU (stripe bar), 100 µM and 10 µM PPF-BBI, F^8-PPF-BBI, K^16-PPF-BBI and Tat-loop. The control represents the cell viability without any treatments. The statistical significance of difference was analyzed by a one-way ANOVA (* p < 0.05, **** p < 0.0001). (b) The haemolysis rates of PPF-BBI, F^8-PPF-BBI, K^16-PPF-BBI and Tat-loop on erythrocytes after being incubated for 4 h. The incubation of erythrocytes with 2% (v/v) Triton X-100 was designated as a positive control (100% haemolysis).

T2 sequence (Q15661 31-275): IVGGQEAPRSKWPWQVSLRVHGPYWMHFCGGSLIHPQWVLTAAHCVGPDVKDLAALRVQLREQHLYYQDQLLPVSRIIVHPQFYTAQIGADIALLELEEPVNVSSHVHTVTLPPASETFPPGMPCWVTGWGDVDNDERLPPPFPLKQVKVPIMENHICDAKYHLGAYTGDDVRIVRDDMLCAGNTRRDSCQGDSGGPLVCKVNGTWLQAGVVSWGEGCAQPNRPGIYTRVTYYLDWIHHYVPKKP

Row | Structure (SMILES) | pKi (trypsin) | Ki (µM) of Chymotrypsin (chymotrypsin) | Ki (tryptase) [µM] | MBC [1] [µM] | MIC [1] [µM] | MBC (E. coli (NCTC 10418)) [µM] | MIC (E. coli (NCTC 10418)) [µM] | MBC (S. aureus (NCTC 10788)) [µM] | MIC (S. aureus (NCTC 10788)) [µM] | MBC (C. albicans (NCYC 1467)) [µM] | MIC (C. albicans (NCYC 1467)) [µM] | MBC [2] [µM] | MIC [2] [µM] | Ki (µM) of Trypsin (trypsin; fluorogenic substrate, AMC release (ex 360/em 460 nm), Morrison plot, average of three independent experiments) | Ki (chymotrypsin) [µM] | Ki (µM) of Tryptase (tryptase) | Haemolytic activity (horse erythrocytes)
1 | CC[C@H](C)[C@@H]1NC(=O)[C@H](CO)NC(=O)[C@H](CCCCN)NC(=O)[C@H]([C@@H](C)O)NC(=O)[C@H](Cc2c[nH]c3ccccc23)NC(=O)[C@@H](NC(=O)CNC(=O)[C@H](CCCNC(=N)N)NC(=O)[C@H](CC(C)C)NC(=O)[C@H](C)N)CSSC[C@@H](C(=O)N2CCC[C@H]2C(N)=O)NC(=O)[C@@H]2CCCN2C(=O)[C@H](CCCCN)NC(=O)[C@@H]2CCCN2C(=O)[C@@H]2CCCN2C1=O [PPF-BBI] (H-ALRGCWTKSIPPKPCP-NH2; disulfide 5-15) | 6.77 | N.I.* | 30.7 | >512 | >512 | 128 (≈ 224 µg/mL) | 128 (≈ 224 µg/mL) | 128 (≈ 224 µg/mL) | 128 (≈ 224 µg/mL) | 512 (≈ 897 µg/mL) | 512 (≈ 897 µg/mL) | >512 | >512 | – | – | – | –
2 | CC[C@H](C)[C@@H]1NC(=O)[C@H](CO)NC(=O)[C@H](CCCCN)NC(=O)[C@H]([C@@H](C)O)NC(=O)[C@H](Cc2c[nH]c3ccccc23)NC(=O)[C@@H](NC(=O)CNC(=O)[C@H](CCCNC(=N)N)NC(=O)[C@H](CC(C)C)NC(=O)[C@H](C)N)CSSC[C@@H](C(=O)N[C@@H](CCCCN)C(N)=O)NC(=O)[C@@H]2CCCN2C(=O)[C@H](CCCCN)NC(=O)[C@@H]2CCCN2C(=O)[C@@H]2CCCN2C1=O [K^16-PPF-BBI] (H-ALRGCWTKSIPPKPCK-NH2; disulfide 5-15) | 6.95 | N.I.* | 9.67 | 512 (≈ 912 µg/mL) | 512 (≈ 912 µg/mL) | 128 (≈ 228 µg/mL) | 128 (≈ 228 µg/mL) | 64 (≈ 114 µg/mL) | 64 (≈ 114 µg/mL) | 128 (≈ 228 µg/mL) | 128 (≈ 228 µg/mL) | 512 (≈ 912 µg/mL) | 512 (≈ 912 µg/mL) | – | – | – | –
3 | CC[C@H](C)[C@@H]1NC(=O)[C@H](CO)NC(=O)[C@H](Cc2ccccc2)NC(=O)[C@H]([C@@H](C)O)NC(=O)[C@H](Cc2c[nH]c3ccccc23)NC(=O)[C@@H](NC(=O)CNC(=O)[C@H](CCCNC(=N)N)NC(=O)[C@H](CC(C)C)NC(=O)[C@H](C)N)CSSC[C@@H](C(=O)N2CCC[C@H]2C(N)=O)NC(=O)[C@@H]2CCCN2C(=O)[C@H](CCCCN)NC(=O)[C@@H]2CCCN2C(=O)[C@@H]2CCCN2C1=O [F^8-PPF-BBI] (H-ALRGCWTFSIPPKPCP-NH2; disulfide 5-15) | – | – | – | >512 | >512 | >512 | >512 | >512 | >512 | >512 | >512 | >512 | >512 | N.I.* | 0.85 | N.I.* | –
4 | CC[C@H](C)[C@@H]1NC(=O)[C@H](CO)NC(=O)[C@H](CCCCN)NC(=O)[C@H]([C@@H](C)O)NC(=O)[C@H](Cc2c[nH]c3ccccc23)NC(=O)[C@@H](N)CSSC[C@@H](C(=O)O)NC(=O)[C@@H]2CCCN2C(=O)[C@H](CCCCN)NC(=O)[C@@H]2CCCN2C(=O)[C@@H]2CCCN2C1=O [TIL, reference compound] | – | N.I.* | – | >512 | >512 | >512 | >512 | >512 | >512 | >512 | >512 | >512 | >512 | – | – | lost their inhibitory activity; also recorded: N.I.* | –
5 | CC[C@H](C)[C@@H]1NC(=O)[C@H](CO)NC(=O)[C@H](CCCCN)NC(=O)[C@H]([C@@H](C)O)NC(=O)[C@H](Cc2c[nH]c3ccccc23)NC(=O)[C@@H](NC(=O)[C@H](CCCNC(=N)N)NC(=O)[C@H](CCCNC(=N)N)NC(=O)[C@H](CCCNC(=N)N)NC(=O)[C@H](CCC(N)=O)NC(=O)[C@H](CCCNC(=N)N)NC(=O)[C@H](CCCNC(=N)N)NC(=O)[C@H](CCCCN)NC(=O)[C@H](CCCCN)NC(=O)[C@@H](N)CCCNC(=N)N)CSSC[C@@H](C(=O)O)NC(=O)[C@@H]2CCCN2C(=O)[C@H](CCCCN)NC(=O)[C@@H]2CCCN2C(=O)[C@@H]2CCCN2C1=O [Tat-loop] (H-RKKRRQRRRCWTKSIPPKPC-OH; disulfide 10-20) | 6.22 | N.I.* | – | 512 (≈ 1320 µg/mL) | 256 (≈ 660 µg/mL) | 128 (≈ 330 µg/mL) | 128 (≈ 330 µg/mL) | 128 (≈ 330 µg/mL) | 128 (≈ 330 µg/mL) | 8 (≈ 20.6 µg/mL) | 4 (≈ 10.3 µg/mL) | 256 (≈ 660 µg/mL) | 256 (≈ 660 µg/mL) | – | – | lost their inhibitory activity; also recorded: N.I.* | low haemolytic activity
6 | N=C(N)NCCC[C@H](NC(=O)[C@H](CCCNC(=N)N)NC(=O)[C@H](CCCNC(=N)N)NC(=O)[C@H](CCC(N)=O)NC(=O)[C@H](CCCNC(=N)N)NC(=O)[C@H](CCCNC(=N)N)NC(=O)[C@H](CCCCN)NC(=O)[C@H](CCCCN)NC(=O)[C@@H](N)CCCNC(=N)N)C(=O)O [Tat, reference compound] | – | – | – | >512 | >512 | 256 (≈ 343 µg/mL) | 256 (≈ 343 µg/mL) | 512 (≈ 686 µg/mL) | 512 (≈ 686 µg/mL) | >512 | >512 | >512 | >512 | – | – | – | –
